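Briefly, cells in 96-well plates were exposed to five compound concentrations for 48 h, and endpoints were estimated by linear interpolation. TGI: total growth inhibition.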

Drawing on PubChem BioAssay (NCI), this text covers TGI for seven molecules.

Some test systems named below: SK-MEL-28 melanoma; SW-620 colon; CCRF-CEM leukemia; NCI-H23 lung; UO-31 renal; SK-MEL-2 melanoma; MOLT-4 leukemia; SNB-19 CNS; UACC-257 melanoma; MCF7 breast; OVCAR-5 ovarian; SF-539 CNS; CAKI-1 renal; MDA-MB-231 breast; SF-268 CNS; A549 NSCLC; HOP-92 NSCLC; HOP-62 NSCLC; U251 CNS.
Assay in all cases: NCI anticancer screen, dose series, 48 h

As to `NC(=NCCN1CCCCCCC1)NO`, the TGI in the test on SK-MEL-28 melanoma, with SW-620 colon, in the test with CCRF-CEM leukemia, in the test with NCI-H23 lung, in the test on UO-31 renal and in the test on SK-MEL-2 melanoma was > 100 µM in each case. The TGI in the test on MOLT-4 leukemia, in the test on SNB-19 CNS, in the test with UACC-257 melanoma, in the test on MCF7 breast, with OVCAR-5 ovarian and in the test with SF-539 CNS was > 100 µM throughout. For the same molecule, the TGI in the test with CAKI-1 renal, in the test on MDA-MB-231 breast, in the test on SF-268 CNS, in the test on A549 NSCLC, with HOP-92 NSCLC and with HOP-62 NSCLC was > 100 µM throughout.

As for `COC(=O)/C(=N\NC(=S)NN)C(C(=O)OC)C(=O)C(=O)Nc1cccc(C(F)(F)F)c1` (centres undefined), the TGI with SK-MEL-28 melanoma, in the test on SW-620 colon, with CCRF-CEM leukemia, in the test on NCI-H23 lung, in the test on UO-31 renal and with U251 CNS was > 100 µM each time. Further, the TGI in the test on SK-MEL-2 melanoma, in the test with SNB-19 CNS, with UACC-257 melanoma, in the test with MCF7 breast, in the test on OVCAR-5 ovarian and in the test with SF-539 CNS was > 100 µM in each case. Besides, the TGI in the test on CAKI-1 renal, in the test with MDA-MB-231 breast, in the test with SF-268 CNS, with A549 NSCLC, in the test on HOP-92 NSCLC and in the test with HOP-62 NSCLC was > 100 µM in each case.

With `O=[N+]([O-])C(=C(N1CCCCC1)N1CCCCC1)/C(Cl)=C(\Cl)[N+](=O)[O-]`, the TGI is 37.3 µM with SK-MEL-28 melanoma; 28.7 µM in the test with SW-620 colon; > 31.3 µM in the test with CCRF-CEM leukemia; 14 µM in the test on NCI-H23 lung; 8.11 µM with UO-31 renal; 46 µM in the test with U251 CNS. In addition, the TGI was 35.1 µM in the test on SK-MEL-2 melanoma; 36 µM in the test with SNB-19 CNS; 15.5 µM in the test with UACC-257 melanoma; 7.06 µM in the test on MCF7 breast; 35.5 µM in the test on OVCAR-5 ovarian; 25.8 µM with SF-539 CNS. In addition, the TGI came to 2.83 µM in the test on CAKI-1 renal; 14.8 µM in the test on MDA-MB-231 breast; 25.4 µM in the test with SF-268 CNS; 42.4 µM with A549 NSCLC; 6.6 µM in the test on HOP-92 NSCLC; 31.4 µM in the test on HOP-62 NSCLC.

With `CC(=O)O[C@H]1CC[C@@]2(C)C(=C[C@H](c3ccc(O)cc3)[C@H]3[C@@H]4CC[C@H](OC(C)=O)[C@@]4(C)CC[C@@H]32)C1`, the TGI in the test with SW-620 colon amounted to 46.2 µM; in the test on CCRF-CEM leukemia, 56.1 µM; in the test with NCI-H23 lung, 53.7 µM; in the test with UO-31 renal, 76.4 µM; in the test on U251 CNS it was 48 µM; in the test with SK-MEL-2 melanoma it was 48.4 µM. Moreover, the TGI in the test with MOLT-4 leukemia amounted to 45.3 µM; in the test on SNB-19 CNS, 47.7 µM; in the test with UACC-257 melanoma it was 51.6 µM; with MCF7 breast, 57.4 µM; with OVCAR-5 ovarian, 97.9 µM; in the test on SF-539 CNS it was 43.9 µM. The TGI with CAKI-1 renal was found to be 53.4 µM; in the test with MDA-MB-231 breast it was 35.8 µM; with SF-268 CNS, 39.3 µM; with A549 NSCLC, 40.5 µM; in the test on HOP-92 NSCLC, 81.5 µM; in the test with HOP-62 NSCLC it was 66.9 µM.

For `CN(C)C(=S)N/N=C(\C(=N/NC(=S)N(C)C)c1ccccn1)c1ccccn1`, the TGI in the test on SK-MEL-28 melanoma is 34.4 µM; in the test with SW-620 colon, 29.9 µM; in the test with NCI-H23 lung, > 53.2 µM; with UO-31 renal, 21.6 µM; with U251 CNS it was 20.4 µM; with SK-MEL-2 melanoma, 36.7 µM. Also, the TGI in the test with SNB-19 CNS was 31.8 µM; with UACC-257 melanoma, 50 µM; in the test on MCF7 breast, > 48.7 µM; with OVCAR-5 ovarian, 55.1 µM; in the test with SF-539 CNS, > 100 µM; in the test on CAKI-1 renal, 34.1 µM. For the same molecule, the TGI with MDA-MB-231 breast is 43.1 µM; in the test with SF-268 CNS it was 23.7 µM; in the test with A549 NSCLC, 27.3 µM; in the test on HOP-92 NSCLC, 22.1 µM; in the test on HOP-62 NSCLC, 38.7 µM.

With `C/C(=N\Nc1nc2ccccc2s1)c1cnccn1`, the TGI with SK-MEL-28 melanoma is > 100 µM; in the test on SW-620 colon, > 100 µM; in the test with CCRF-CEM leukemia it was > 100 µM; in the test with NCI-H23 lung, 12.3 µM; in the test on UO-31 renal it was 23.6 µM; in the test on U251 CNS, > 100 µM. Further, the TGI in the test on SK-MEL-2 melanoma is 49.9 µM; in the test on SNB-19 CNS, > 29.4 µM; with UACC-257 melanoma it was > 100 µM; in the test with MCF7 breast it was 20.2 µM; in the test on OVCAR-5 ovarian it was > 77.7 µM; in the test on SF-539 CNS, 36.7 µM. The TGI with CAKI-1 renal is > 42.2 µM; in the test on MDA-MB-231 breast it was > 88.1 µM; with SF-268 CNS, > 22.7 µM; in the test on A549 NSCLC, > 65.5 µM; in the test with HOP-92 NSCLC it was > 28.3 µM; with HOP-62 NSCLC, > 54.8 µM.

Consider `CCC1c2[nH]c3ccccc3c2C[C@H]2C(=O)NC(CCCCNC(=O)OC(C)(C)C)C(=O)N12` (some centres undefined), for which the TGI in the test on SK-MEL-28 melanoma is > 100 µM; with SW-620 colon it was > 100 µM; with NCI-H23 lung, 59.6 µM; with UO-31 renal, > 100 µM; in the test with U251 CNS, > 100 µM; with SK-MEL-2 melanoma, 57.8 µM. Further, the TGI with MOLT-4 leukemia was 43.5 µM; in the test with SNB-19 CNS, > 100 µM; in the test on UACC-257 melanoma it was 66.8 µM; in the test with MCF7 breast, > 100 µM; with OVCAR-5 ovarian, > 100 µM; in the test on CAKI-1 renal, 70.4 µM. Also, the TGI was 99.4 µM in the test on MDA-MB-231 breast; > 100 µM with SF-268 CNS; > 100 µM in the test with A549 NSCLC; 94.4 µM in the test with HOP-92 NSCLC; > 100 µM in the test with HOP-62 NSCLC.
